Results reported in US4451467A, “4(3H)-Quinazolinone derivatives, process for production thereof, and pharmaceutical compositions comprising said compounds” (Ishikawa; Masayuki, priority 1981, dated 1984).

Assays:
Type in all cases: in vivo
[1] = test system: normotensive dogs anesthetized with pentobarbital sodium; experiment: Hypotensive effect on anesthetized dogs (intravenous); conditions: i.v.; for Hypotensive Effect Δ(mmHg): anesthetized dogs, mean value; for hypotensive effect in anesthetized dogs (in words): same conditions as Table II, dose under 100 μg/kg
Procedure: Groups of three to four normotensive dogs anesthetized with pentobarbital sodium were used in the experiments. The test compounds were dissolved in a minimum amount of ethanol, and the solutions were administered intravenously in the vein cannulated with a polyethylene tube. The mean blood pressures in the carotid artery were recorded using a pressure transducer and a recorder. The hypotensive effect in Table II are a mean value obtained from at least three to four experiments.

[2] = test system: male spontaneously hypertensive rats (Wister Kyoto origin); experiment: Hypotensive effect on conscious spontaneously hypertensive rats (oral); conditions: Rattus norvegicus, tail-cuff method, read-out: pD30 (dose which decreases systolic blood pressure by 30 mmHg)
Procedure: (b) Hypotensive effect on conscious spontaneously hypertensive rate
The test compounds were orally administered to groups of four to five of male spontaneously hypertensive rats (Wister Kyoto origin) weighing about 300 g and aged 15 to 20 weeks. The systolic blood pressure was measured by the tail-cuff method using a plethysmograph.

[3] = Test for acute toxicity (oral, rats); conditions: rat, in vivo, rats, 8 days
Text: (§1) A suspension of a test compound in 0.5% CMC aqueous solution containing Tween 80 was orally administered to rats, and during 8 days the number of dead rats was counted.

rats = experiment: Test for acute toxicity (oral, rats); conditions: for number of dead rats [drawing 15]: 8 days
Text: as §1

Compound | Hypotensive Effect Δ(mmHg) ([1]; dose 1.0 μg/kg) | Hypotensive Effect Δ(mmHg) ([1]; dose 3.0 μg/kg) | Hypotensive Effect Δ(mmHg) ([1]; dose 10 μg/kg) | further results
CCOC(=O)c1c(C)cc2nc(COC(=O)NC(C)C)n(-c3ccccc3F)c(=O)c2c1C [Compound 18] | 5 | 10 | 28 | –
CCOC(=O)c1c(C)cc2nc(COC(=O)NC(C)(C)C)n(-c3ccccc3Cl)c(=O)c2c1C [Compound 14] | 8 | 10 | 25 | –
CCOC(=O)c1c(C)cc2nc(COC(=O)N(C)C)n(-c3ccccc3Cl)c(=O)c2c1C.Cl [Compound 3, 3-(2-chlorophenyl)-2-(N,N-dimethylcarbamoyloxymethyl)-6-ethoxy-carbonyl-5,7-dimethyl-4(3H)-quinazolinone hydrochloride] | 0 | 0 | 1 | Hypotensive Effect Δ(mmHg) ([1]; dose 30 μg/kg): 6 mmHg; Hypotensive Effect Δ(mmHg) ([1]; dose 100 μg/kg): 20 mmHg
COc1ccc(Cc2nccc3cc(OC)c(OC)cc23)cc1OC [papaverine, reference compound] | – | – | – | hypotensive effect in anesthetized dogs (in words) [1]: did not exhibit a hypotensive effect
CCOC(=O)c1c(C)cc2nc(C)n(-c3ccccc3Cl)c(=O)c2c1C [3-(2-chlorophenyl)-6-ethoxycarbonyl-2,5,7-trimethyl-4(3H)-quinazolinone, reference compound] | – | – | – | hypotensive effect in anesthetized dogs (in words) [1]: did not exhibit a hypotensive effect
CCCCNC(=O)OCc1nc2cc(C)c(C(=O)OCC)c(C)c2c(=O)n1-c1ccccc1Cl [Compound 12] | 10 | 25 | – | –
CCOC(=O)c1c(C)cc2nc(COC(=O)NC(C)C)n(-c3ccccc3Br)c(=O)c2c1C [Compound 19] | 20 | 35 | – | –
CCOC(=O)c1c(C)cc2nc(COC(=O)NC(C)C)n(-c3ccccc3C(F)(F)F)c(=O)c2c1C [Compound 27] | 0 | 0 | 8 | Hypotensive Effect Δ(mmHg) ([1]; dose 30 μg/kg): 18 mmHg; Hypotensive Effect Δ(mmHg) ([1]; dose 100 μg/kg): 25 mmHg
CCNC(=O)OCc1nc2cc(C)c(C(=O)OCC)c(C)c2c(=O)n1-c1ccccc1Cl [Compound 9] | 22 | 42 | – | ED (30 mmHg) [2]: 0.35 mg/kg
CCOC(=O)c1c(C)cc2nc(COC(=O)NC(C)C)n(-c3ccccc3Cl)c(=O)c2c1C [Compound 2, 3-(2-chlorophenyl)-6-ethoxycarbonyl-5,7-dimethyl-2-(N-isopropylcarbamoyloxymethyl)-4(3H)-quinazolinone] | 24 | 48 | – | ED (30 mmHg) [2]: 0.42 mg/kg
CCCNC(=O)OCc1nc2cc(C)c(C(=O)OCC)c(C)c2c(=O)n1-c1ccccc1Cl [Compound 10] | 10 | 25 | – | –
CCOC(=O)c1c(C)cc2c(c1C)c(=O)n(-c1ccccc1Cl)c(=O)n2CCN(CC)CC [3-(2-chlorophenyl)-6-ethoxycarbonyl-5,7-dimethyl-1-(2-(N,N-diethylamino)ethyl]-2,4(1H,3H)-quinazolinedione, reference compound] | – | – | – | hypotensive effect in anesthetized dogs (in words) [1]: did not exhibit a hypotensive effect
CCOC(=O)c1c(C)cc2nc(COC(=O)NC(C)C)n(-c3ccccc3C)c(=O)c2c1C [Compound 23] | 8 | 25 | – | –
CCOC(=O)c1c(C)cc2nc(C)n(-c3ccccc3C(F)(F)F)c(=O)c2c1C [6-ethoxycarbonyl-3-[2-(trifluoromethyl)phenyl]-2,5,7-trimethyl-4(3H)-quinazoline, reference compound] | – | – | – | hypotensive effect in anesthetized dogs (in words) [1]: did not exhibit a hypotensive effect
CCOC(=O)c1c(C)cc2nc(COC(=O)NC)n(-c3ccccc3Cl)c(=O)c2c1C [Compound 1, 3-(2-chlorophenyl)-6-ethoxycarbonyl-5,7-dimethyl-2-(N-methylcarbamoyloxymethyl)-4(3H)-quinazolinone] | 3 | 6 | 22 | Hypotensive Effect Δ(mmHg) ([1]; dose 30 μg/kg): 43 mmHg; Hypotensive Effect Δ(mmHg) ([1]; dose 100 μg/kg): 51 mmHg; ED (30 mmHg) [2]: 2.8 mg/kg; LD50 at 192 h [3]: 2500 mg/kg; toxicity (in words) (rats; acute, rats): very low; number of dead rats [drawing 15] (rats; dose 1200 mg/Kg): 2/6; number of dead rats [drawing 15] (rats; dose 1715 mg/Kg): 3/6; number of dead rats [drawing 15] (rats; dose 2450 mg/Kg): 3/6; number of dead rats [drawing 15] (rats; dose 3500 mg/Kg): 3/6; number of dead rats [drawing 15] (rats; dose 5000 mg/Kg): 5/6
CCNC(=O)OCc1nc2cc(C)c(C(=O)OCC)c(C)c2c(=O)n1-c1ccccc1[N+](=O)[O-] [Compound 28] | 0 | 6 | 9 | Hypotensive Effect Δ(mmHg) ([1]; dose 30 μg/kg): 25 mmHg
CCOC(=O)c1c(C)cc2c(c1C)c(=O)n(-c1ccccc1C(F)(F)F)c(=O)n2CCN(CC)CC [6-ethoxycarbonyl-3-[2-(trifluoromethyl)phenyl]-5,7-dimethyl-1-[2-(N,N-diethylamino)ethyl]-2,4(1H,3H)-quinazolinedione, reference compound] | – | – | – | hypotensive effect in anesthetized dogs (in words) [1]: did not exhibit a hypotensive effect
